As usually defined, the GI50 is the concentration at which growth is held to half of that of the control.

Here are results for two compounds from publication PMC11215747, “Improved Rigidin-Inspired Antiproliferative Agents with Modifications on the 7-Deazahypoxanthine C7/C8 Ring Systems” (Journal of Medicinal Chemistry, 2024).

“Also recorded” adds a separate entry of the source. Read-outs that look alike come from different tables or passages of the source.

One data set deals with colon cancer. Also noted: method as in PMID 26641132. Conditions: mouse model for colon cancer, 3 mg/kg; cited from earlier work.
Data set [1] has as its system HeLa cells. The data set can be described thus: Annexin V apoptosis assay and cell-fate tracking in HeLa cells. Conditions: 20 nM; for apoptosis at the 30 hour time point (Annexin V fluorescence): 6 biological replicates, one-way ANOVA amongst compounds; for total numbers of cells that died following mitotic arrest: single-cell tracking, >130 cells per treatment. Type of data set: cell-based, Human. Here is the method:
To directly assess apoptosis in living cells, HeLa cells were plated (six biological replicates per condition) in 96-well Imagelock Plates (Sartorius BA-04855) at a density of 1,562.5 cells/cm^2. The following day, cells were placed in media containing IncuCyte Annexin V Dye (Sartorius 4642) supplemented with either 0.1% Dimethyl sulfoxide or test compounds (20 nM), and plates were placed in a Sartorius Incucyte S3 live cell imaging system. Plates were scanned hourly, with phase contrast and green fluorescence images were acquired at three positions per well. Raw fluorescence data was processed using Incucyte software, and Prism Graphpad was used for data visualization and statistical analysis. To track individual cell fates, combined phase contrast/fluorescence time lapse sequences were exported from multiple wells per condition, and cell fates individual cells were scored and tabulated using Graphpad Prism software.

The test system of the next data set is PNT1A cells. Kind of data set: MTT cytotoxicity assay against normal epithelial cell line PNT1A. Type of data set: cell-based. Conditions: Homo sapiens, PNT1A. As to the method:
(§1) The 3-(4,5-dimethylthiazol-2-yl)-2,5-diphenyltetrazolium bromide (MTT) assay was employed to evaluate the antiproliferative activities of the synthesized 7-deazahypoxathine analogues. The HeLa, PNT1A, or PANC-1 cell lines were assessed by trypsinizing and seeding 4 × 10^3 cells per well into 96-well plates. Synthesized compounds were dissolved in DMSO at a concentration of either 50 mM or 100 mM before cell treatment. Cells were grown for 24 h and then treated with compounds at concentrations ranging from 0.04 to 100 μM and incubated for 48 h in 200 μL media. Twenty microliters of MTT reagent in serum-free medium (5 mg/mL) was added to each well and incubated further for 2 h. Media was removed and the resulting formazan crystals were resolubilized in 200 μL of DMSO. A Thermomax Molecular Device plate reader was utilized to measure A490. Experiments were performed in quadruplicate and repeated at least twice for each compound. The control comprised of cells treated with 0.1% DMSO. One micromolar phenyl arsine oxide (PAO) was utilized as a positive killing control.
In general terms: Formazan colour is commonly taken as a measure of viable cells.

The test system of a further data set is human colon cancer lines. Also noted: method as in PMID 26641132. The settings on record: several human colon cancer lines; cited from earlier work.
The subject of data set [2] is WI38 embryonic lung fibroblast cell line. Details: method as in PMID 26641132. Conditions: fold less active; cited from earlier work.
The next data set concerns MCF-7 cells. Also noted: method as in PMID 26641132. The settings on record: cited from earlier work.
The subject of data set [3] is HeLa cells. Kind of data set: MTT antiproliferative assay against HeLa cells. Type of data set: cell-based, Human. The settings on record: Homo sapiens, MTT, 48 h, average and SD from two independent determinations, each in quadruplicate (footnote c), read-out: GI50 (μM) ± SD. Here is the method:
as §1, with “control. […]” for “control.”

In data set [4] the test system is HeLa cells. The data set can be described thus: Live cell imaging of EGFP-tubulin expressing HeLa cells. Type of data set: cell-based, Human. Conditions: 7.5 nM (50% of GI50), 4 h. Here is the method:
HeLa cells were plated on 35 mm glass-bottomed Mattek dishes (Mattek, code P35G-1.5–14-C). Next day, transient transfection of EGFP-tubulin was performed using a Lipofectamine 2000 (Thermofisher code 11668019) according to the manufacturer’s instructions. After 6 h of transfection, cells were cultured in fresh media overnight before being treated with either 0.1% DMSO or 7.5 nM analogue 33 for 4 h. To visualize chromatin, cells were cultured in the presence the cell permeant NucSpot Live nuclear stain (Biotium code 40082) for 60 min prior to imaging. Cells were imaged live using an Andor Dragonfly 505 spinning disk confocal system mounted on an Olympus IX83 inverted microscope. Cell viability was maintained by an Oko Touch prewarmed (37 °C) temperature-controlled microscope stage supplied with 5% CO2. Z-stacks (10 planes at […] intervals) were acquired every 2 min using a 60× Aprochromat silicon objective (NA 1.30) and an Andor iXon 888 EMCCD camera driven by Andor Fusion software. Fusion IMS files were converted to tiff images and avi movies using FIJI, and figures were prepared in Adobe Photoshop CS5.

In the next data set the test system is PANC-1 cells. The data set can be described thus: MTT cytotoxicity assay against PANC-1 cells. Type of data set: cell-based. Conditions: Homo sapiens; PANC-1 cell line. Here is the method: as §1
The target of the next data set is T1, tubulin (Sus scrofa, UniProt P02554).
T1 construct: purchased Cytoskeleton, Inc
The data set can be described thus: Fluorescence-based tubulin polymerization assay. Type of data set: biochemical. Conditions: 25 μM, relative to 1% DMSO control, averaged from two experiments. As to the method: The fluorescence-based tubulin polymerization assay from Cytoskeleton, Inc. was used. […] The tubulin reaction mixture was prepared per manufacturer’s instructions, kept on ice, and used within ∼15 min of preparation. A Biotek Synergy H4 hybrid multimode plate reader was preheated to 37 °C. Prior to starting the assay, a half-area black 96-well plate was preheated within the plate reader. A volume of 5 μL of each of the tested samples was pipetted into separate wells of the plate and incubated in the warm plate reader for 1 min.

Data set [5] relates to HeLa cells. The data set can be described thus: Microtubule organization by immunolabeling in HeLa cells. Type of data set: cell-based, Human. Conditions: 4 h. Here is the method:
To examine microtubule morphology in rigidin-treated cells, HeLa cells were incubated for 4 h in the presence or absence of test compound before being fixed with 3.7% formaldehyde in PBS and permeabilized with 0.1% Triton X-100 in PBS. After blocking the cells with 3% bovine serum albumin in PBS, they were probed with antibodies for the centromere marker CENP-B (Abcam, code ab25734) and tubulin (Sigma, code sc-53029), which were detected with Alexa Fluor-labeled secondary antibodies (Thermofisher). Hoechst 33342 (1 mg/mL, Thermofisher H3570) was used to stain DNA. Samples were mounted on glass slides and imaged using Andor Dragonfly 505 spinning disk confocal system mounted on an Olympus IX83 inverted microscope. Figures were created with Adobe Photoshop CS5. All drugs were resuspended in DMSO, and 0.1% DMSO served as a carrier control.

T1 sequence (P02554 whole entry): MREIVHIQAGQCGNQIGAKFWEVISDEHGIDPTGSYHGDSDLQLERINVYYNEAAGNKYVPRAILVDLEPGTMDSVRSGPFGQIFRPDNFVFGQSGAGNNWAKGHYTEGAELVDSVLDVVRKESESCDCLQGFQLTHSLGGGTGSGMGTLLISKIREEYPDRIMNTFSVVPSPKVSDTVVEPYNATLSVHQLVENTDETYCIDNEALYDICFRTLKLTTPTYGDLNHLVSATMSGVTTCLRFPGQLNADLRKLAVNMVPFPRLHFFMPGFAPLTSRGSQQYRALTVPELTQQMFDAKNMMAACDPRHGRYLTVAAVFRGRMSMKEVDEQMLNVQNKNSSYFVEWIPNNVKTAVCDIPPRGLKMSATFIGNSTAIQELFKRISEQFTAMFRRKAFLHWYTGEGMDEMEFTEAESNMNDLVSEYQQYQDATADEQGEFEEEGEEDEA
T1 sequence (P02550 whole entry partner): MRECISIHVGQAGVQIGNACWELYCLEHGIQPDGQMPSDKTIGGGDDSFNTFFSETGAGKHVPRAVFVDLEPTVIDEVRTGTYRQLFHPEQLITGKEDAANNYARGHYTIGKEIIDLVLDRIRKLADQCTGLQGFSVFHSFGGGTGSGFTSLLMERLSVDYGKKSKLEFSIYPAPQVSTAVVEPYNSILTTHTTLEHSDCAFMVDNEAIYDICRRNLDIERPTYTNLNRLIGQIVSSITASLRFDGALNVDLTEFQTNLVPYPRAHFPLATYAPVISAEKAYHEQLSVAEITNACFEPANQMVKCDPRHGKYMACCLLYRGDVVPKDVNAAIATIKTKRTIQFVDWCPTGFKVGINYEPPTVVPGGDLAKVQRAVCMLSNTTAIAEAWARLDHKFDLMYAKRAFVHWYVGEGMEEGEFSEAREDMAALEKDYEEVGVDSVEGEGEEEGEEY

On to `C#CCCCc1nc(=O)c2c(-c3ccccc3)c(C(=O)c3ccccc3)[nH]c2[nH]1` [Compound 1, 6-Benzoyl-2-(pent-4-yn-1-yl)-5-phenyl-1,7-dihydro-4H-pyrrolo[2,3-d]pyrimidin-4-one], for which, in the data set on colon cancer, the body weight result was “maintaining body weight”, the side effects entry is “no observable side effects” and the tumor size entry was “significant tumor size reduction”. In the data set with HeLa cells [1], the “apoptosis at the 30 hour time point (Annexin V fluorescence)” value is listed as “no significant differences” and the “total numbers of cells that died following mitotic arrest” value came out at 75%. For the same compound, the 50% growth inhibitory concentration (GI50) in the data set on PNT1A cells (read-out: PNT1A GI50(mM)) is 0.036 ± 0.009 µM. The GI50 values entry in the data set on human colon cancer lines is reported as “approaching single-digit nanomolar values”. For the same compound, the “activity against WI38 compared to four colorectal cancer cell lines” value in data set [2] is “approximately 1000 fold”. For the same compound, the GI50 in the data set on MCF-7 cells was 0.035 µM.
Consider `C#CCCCc1nc(=O)c2c(-c3ccccc3)c(C(=O)c3ccc(OCCOCC)cc3)[nH]c2[nH]1` [Compound 33, 6-[4-(2-Ethoxyethoxy)benzoyl]-2-(pent-4-yn-1-yl)-5-phenyl-1,7-dihydro-4H-pyrrolo[2,3-d]pyrimidin-4-one], for which, in the data set on HeLa cells [3], the GI50 is 0.015 ± 0.004 µM. Also, in the data set on HeLa cells [4], the “mitotic progression in live cell imaging” value was “various responses ranging from correcting the syntelic attachments and progressing through mitosis to prolonged prometaphase arrest, followed by mitotic exit and/or cell death”. In the data set with PANC-1 cells, this compound showed a GI50 of 0.015 µM. Also, in the data set on HeLa cells [1], the “apoptosis at the 30 hour time point (Annexin V fluorescence)” value is reported as “no significant differences” and the “total numbers of cells that died following mitotic arrest” value worked out at 86%. The GI50 with PNT1A cells (molecular formula strings CSV, read-out: PNT1A GI50) is 0.024 ± 0.005 µM. The “effect on in vitro tubulin polymerization” value at tubulin is “potent inhibition of microtubule assembly; also recorded: completely suppress tubulin polymerization”. In the data set on HeLa cells [5] (at GI50 concentrations), the “effect on interphase microtubules” value was “no striking effects on interphase microtubules” and the “effect on spindle morphology” value was “remarkable effects on the spindle morphology”. The syntelic chromosome attachments result with HeLa cells [5] (lower concentrations (GI25)) is “still prevalent”.
